{"source": "patent US7476767B2", "about": "“Alpha-hydroxy sulfonate aldehydes, germicidal compositions containing the alpha-hydroxy sulfonate aldehydes, or mixtures of alpha-hydroxy sulfonate aldehydes and phthalaldehydes, and methods of using the compounds or compositions for disinfection or sterilization” (Ethicon, Inc., priority 2004, dated 2009)", "key": {"[1]": {"system": "Mycobacterium terrae bacteria", "assay": "Bacterial suspension test", "format": "cell-based", "conditions": "for Log Reductions/mL: 20° C.; for Germicidal Efficacy: Table 14 summary", "procedure": "In this test method, 9 mL of the germicide to be tested is placed in a tube, put into a water bath and allowed to come to the desired temperature. One mL of the test organism, including at least 7 logs/mL of Mycobacterium terrae bacteria, is added to the 9 mL of the germicide to be tested. […] It will be appreciated by those skilled in the art that other concentrations may be utilized by proper dilution and accounting. At appropriate time intervals, 1 mL aliquots of the germicide-cell suspension were removed and added directly into 9 mL of a 1% glycine solution (neutralizer) and mixed thoroughly to neutralize the germicide in the transferred suspension. The glycine solution was prepared from solid glycine, which is available from VWR Scientific Products, among others. The above-identified 10 mL neutralized solution was then poured through a membrane filter having an average pore size of 0.45 micrometers. The filter was then rinsed twice with at least 150 mL of the 1% glycine solution per rinse. The filter was then placed on an agar plate and incubated for twenty-one days at 37° C. In the above procedure, if dilution was needed, then the 1 mL germicidal-cell suspension was diluted in 99 mL of a phosphate buffer before addition to the 9 mL of the 1% glycine solution. The phosphate buffer was DiLu-LoK™ Butterfields Phosphate Buffer, available from Hardy Diagnostics, of Santa Maria, Calif. The surviving colonies are then counted. The data is plotted as S/So vs. time. So is the initial count of the bacteria in the above 10 mL solution which is at least 10^6 bacteria/mL, and S is the surviving bacteria from the above filter on the agar plate. The results of the experiments were presented in terms of log reductions. Log reduction is the difference between log(So) and log(S). As one example, if log(So)=6.2, and if there were 100 survivors, then the log(S)=2, and the log reduction was reported as 4.2."}, "Solubility in water": {"assay": "Solubility in water", "format": "physicochemical"}}}
{"molecule": "4-pyridinyl-propanedial", "values": [{"measurement": "Log Reductions/mL", "setting": "[1]; Saturated (~2.3% w/v), 5 min", "value": 4.0, "unit": "log reductions/mL"}]}
{"molecule": "O=Cc1ccc(Br)cc1C=O", "note": "[4-bromo-phthalaldehyde]", "values": [{"measurement": "Log Reductions/mL", "setting": "[1]; 0.1%, 30 min exposure", "value": "Total Kill"}]}
{"molecule": "O=Cc1ccc(Cl)cc1C=O", "note": "[4-chloro-phthalaldehyde]", "values": [{"measurement": "Log Reductions/mL", "setting": "[1]; 2.7 w/v % in 20% isopropanol, 5 min", "value": "Total Kill"}]}
{"molecule": "O=Cc1ccc(F)cc1C=O", "note": "[4-fluoro-phthalaldehyde]", "values": [{"measurement": "Log Reductions/mL", "setting": "[1]; 0.25%, 60 min exposure", "value": "Total Kill"}]}
{"molecule": "O=Cc1ccccc1C(O)S(=O)(=O)[O-].[Na+]", "note": "(centres unmarked) [(2-formyl-phenyl)-hydroxy-methane sulfonic acid,sodium salt]", "values": [{"measurement": "Log Reductions/mL", "setting": "[1]; 9.1%, 5 min", "value": "Confluent"}]}
{"molecule": "O=Cc1cccc(C=O)c1", "note": "[IPA, isophthalaldehyde]", "values": [{"measurement": "Log Reductions/mL", "setting": "[1]; Table 11: 0.3%, dissolved in 20% isopropanol, 5 min", "value": "Confluent"}, {"measurement": "Germicidal Efficacy", "setting": "[1]", "value": "Poor"}, {"measurement": "Log Reductions/mL", "setting": "[1]; Table 15: 0.3%, dissolved in 20% isopropanol, 5 min", "value": "Confluent"}]}
{"molecule": "O=Cc1ccccc1C=O", "note": "[OPA, phthalaldehyde]", "values": [{"measurement": "solubility in water", "setting": "Solubility in water", "value": "about 5 % by weight"}, {"measurement": "Germicidal Efficacy", "setting": "[1]", "value": "Good"}]}
{"molecule": "O=Cc1ccc(C=O)cc1", "note": "[TPA, terephthalaldehyde]", "values": [{"measurement": "Log Reductions/mL", "setting": "[1]; 0.2%, dissolved in 20% isopropanol, 5 min", "value": "Confluent"}, {"measurement": "Germicidal Efficacy", "setting": "[1]", "value": "Poor"}]}
{"molecule": "O=CC(C=O)c1ccccc1", "note": "[phenyl-propanedial]", "values": [{"measurement": "solubility in water", "setting": "Solubility in water", "value": "about 1%"}, {"measurement": "Log Reductions/mL", "setting": "[1]; Table 15: ~1%, 5 min", "value": 4.5, "unit": "log reductions/mL"}]}
